Measured values published in US8431596B2 (Cancer Research Technology Limited, priority 2007, dated 2013).

Molecular target: T1, AXL (human catalytic domain) (Homo sapiens, UniProt P30530)
T1 construct: purchased Upstate Ltd. 14-512
T1 sequence (P30530 473-894): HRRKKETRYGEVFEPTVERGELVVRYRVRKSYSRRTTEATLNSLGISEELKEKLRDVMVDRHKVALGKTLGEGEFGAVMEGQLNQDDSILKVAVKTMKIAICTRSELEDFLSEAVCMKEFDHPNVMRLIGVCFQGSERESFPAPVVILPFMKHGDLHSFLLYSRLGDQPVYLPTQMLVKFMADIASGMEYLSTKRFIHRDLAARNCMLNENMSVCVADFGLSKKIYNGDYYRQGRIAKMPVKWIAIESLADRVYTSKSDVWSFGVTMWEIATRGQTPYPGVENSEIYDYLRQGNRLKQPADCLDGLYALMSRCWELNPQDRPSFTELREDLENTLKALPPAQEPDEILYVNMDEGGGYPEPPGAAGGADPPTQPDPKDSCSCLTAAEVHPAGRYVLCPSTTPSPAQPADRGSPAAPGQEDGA
Experiment: AXL (human catalytic domain) Enzyme Activity Assay (IMAP fluorescence polarisation)
Assay type: biochemical
How it was run: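 IMAP FP readout (Ex485/Em535, after overnight binding) measured inhibition of the human AXL catalytic domain (aa473-894, 15 nM final) acting on 100 nM 5FAM-CSK-tide at 150 μM ATP, equal to KM. Reactions ran 60 min at room temperature in pH 7.0 HEPES buffer; IC50 from 10-point curves.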

[1] = further data set (WW-001 through WW-169, XX-001 through XX-469, YY-001 through YY-016, ZZ-001 through ZZ-003), 150 μM ATP
[2] = first data set, recombinant AXL isoform 1 aa473-894, 150 μM ATP

O=C(c1cccc(-c2cccc3nc(Nc4ccc(OCCN5CCCC5)cc4)nn23)c1)c1ccc2c(c1)OCO2 [XX-310, Benzo[1,3]dioxol-5-yl-(3-{2-[4-(2-pyrrolidin-1-yl-ethoxy)-phenylamino]-[1,2,4]triazolo[1,5-a]pyridin-5-yl}-phenyl)-methanone]
IC50 [1]: 100 to 1000 nM

NC(=O)Cn1cc(-c2cccc3nc(Nc4ccc(OCCN5CCCC5)cc4)nn23)cn1 [XX-342]
IC50 [1]: 1000 to 10000 nM

CC(=O)Nc1ccc(-c2cccc3nc(NC(=O)C4CC4)nn23)cc1 [WW-068]
IC50 [2]: 1000 to 10000 nM | IC50 [1]: 1000 to 10000 nM

Fc1cccc(CNc2cccc(-c3cccc4nc(Nc5ccc(OCCN6CCCC6)cc5)nn34)c2)c1 [XX-264]
IC50 [1]: 100 to 1000 nM

CC(C)Oc1ccc(-c2cccc3nc(Nc4ccc(OCCCN5CCCCC5)cc4)nn23)cc1 [XX-420]
IC50 [1]: 100 to 1000 nM

CCN(CC)CCOc1cc(Nc2nc3cccc(-c4cccc(CO)c4)n3n2)ccn1 [XX-357]
IC50 [1]: 100 to 1000 nM

COc1ccc(-c2cccc3nc(NCC4CC4)nn23)cc1 [XX-003, Cyclopropylmethyl-[5-(4-methoxy-phenyl)-[1,2,4]triazolo[1,5-a]pyridin-2-yl]-amine]
IC50 [2]: 1000 to 10000 nM | IC50 [1]: 100 to 1000 nM

NC(=O)c1cccc(-c2cccc3nc(Nc4ccc(OCCN5CCCC5)cc4)nn23)c1 [XX-183]
IC50 [1]: 1000 to 10000 nM

Oc1cc(F)ccc1-c1cccc2nc(Nc3ccc(OCCN4CCCC4)cc3)nn12 [XX-196]
IC50 [1]: 1000 to 10000 nM

O=C(NCCN1CCCC1)c1cccc(Nc2nc3cccc(-c4ccc5c(c4)OCCO5)n3n2)c1 [XX-113]
IC50 [1]: ≤ 100 nM

COc1ccc(-c2cccc3nc(Nc4ccc(OCCCN)cc4)nn23)cc1 [XX-041, [4-(3-Amino-propoxy)-phenyl]-[5-(4-methoxy-phenyl)-[1,2,4]triazolo[1,5-a]pyridin-2-yl]-amine]
IC50 [2]: < 1000 nM | IC50 [1]: 100 to 1000 nM

CCN(CC)CCOc1cc(Nc2nc3cccc(-c4cc5ccccc5o4)n3n2)ccn1 [XX-364]
IC50 [1]: 100 to 1000 nM

CNC(=O)c1ccc(-c2cccc3nc(Nc4ccc(OCCN5CCCC5)cc4)nn23)cc1 [XX-269]
IC50 [1]: 1000 to 10000 nM

O=C(Nc1nc2cccc(-c3ccc4c(c3)OCCCO4)n2n1)C1CC1 [WW-144]
IC50 [2]: 1000 to 10000 nM | IC50 [1]: 1000 to 10000 nM

O=C(Nc1nc2cccc(-c3ccnc(F)c3)n2n1)C1CC1 [WW-030]
IC50 [2]: 1000 to 10000 nM | IC50 [1]: 1000 to 10000 nM

Cc1c(-c2cccc3nc(NC(=O)C4CC4)nn23)cnn1-c1ccccc1 [WW-148]
IC50 [2]: 1000 to 10000 nM | IC50 [1]: 1000 to 10000 nM

COc1ccc(S(=O)(=O)Nc2ccc(-c3cccc4nc(Nc5ccc(OCCN6CCCC6)cc5)nn34)cc2)cc1 [XX-254, 4-Methoxy-N-(4-{2-[4-(2-pyrrolidin-1-yl-ethoxy)-phenylamino]-[1,2,4]triazolo[1,5-a]pyridin-5-yl}-phenyl)-benzenesulfonamide]
IC50 [1]: 100 to 1000 nM

c1cc(-c2ccc3c(c2)OCO3)n2nc(Nc3ccc(OCCN4CCCCC4)cc3)nc2c1 [XX-047]
IC50 [2]: < 1000 nM | IC50 [1]: 100 to 1000 nM

CC(C)(C)OC(=O)Nc1ccc(-c2cccc3nc(NC(=O)C4CC4)nn23)cc1 [WW-110]
IC50 [2]: 1000 to 10000 nM | IC50 [1]: 1000 to 10000 nM

COc1ccccc1CNc1cccc(-c2cccc3nc(Nc4ccc(OCCN5CCCC5)cc4)nn23)c1 [XX-451]
IC50 [1]: 100 to 1000 nM

COc1ccc(-c2cccc3nc(Nc4ccc(OCCN5CCCC5)cc4)nn23)cc1OC [XX-245]
IC50 [1]: 1000 to 10000 nM

CC(C(=O)Nc1cccc(-c2cccc3nc(Nc4ccc(OCCN5CCCC5)cc4)nn23)c1)c1cccc(Cl)c1 (stereo not shown) [XX-228]
IC50 [1]: 1000 to 10000 nM

CN(C)CCCc1cccc(Nc2nc3cccc(-c4ccc5c(c4)OCCO5)n3n2)c1 [XX-115, [5-(2,3-Dihydro-benzo[1,4]dioxin-6-yl)-[1,2,4]triazolo[1,5-a]pyridin-2-yl]-[3-(3-dimethylamino-propyl)-phenyl]-amine]
IC50 [1]: 100 to 1000 nM

CCCNC(=O)Cn1cc(-c2cccc3nc(Nc4ccc(OCCN5CCCC5)cc4)nn23)cn1 [XX-441]
IC50 [1]: 100 to 1000 nM

O=C(Nc1nc2cccc(-c3cccs3)n2n1)C1CC1 [WW-057]
IC50 [2]: 1000 to 10000 nM | IC50 [1]: 1000 to 10000 nM
